In patent US7763582B2 (University of Medicine and Dentistry Of New Jersey, priority 2006, dated 2010):

How the values were obtained:
fractured femora [1] = experiment: Mechanical (torsional) testing of fractured femora, BB Wistar rats (Example 1); type: in vivo; settings: 4 weeks
Excerpt: (§1) A closed mid-diaphyseal fracture was created in the right femur using the following modification of the methods described in Bonnarens, F., and Einhorn, T. A., “Production of a standard closed fracture in laboratory animal bone,” J. Orthop. Res., vol. 2, pages 97-101 (1984). Once a medial, parapatellar incision was made, the patella was dislocated laterally and the interchondylar notch of the distal femur was exposed. An entry hole was made with an 18 gauge needle and the femur was reamed. A 16 gauge teflon cannula was then inserted into the intramedullary canal to stabilize the fracture while a closed midshaft fracture was created unilaterally with the use of a three-point bending, Einhorn fracture machine. Once the fracture was created, the cannula was removed and replaced with a 1.2 mm hollow rod in the Sprague-Dawley rats and a 1 mm Kirschner wire in the BB Wistar rat. […] The animals were allowed to ambulate freely immediately post-fracture.
(§2) Fractured and contralateral femora were resected at 4 weeks and cleaned of soft tissue. Femora were cleaned of soft tissue and the intramedullary rod was removed. Samples were wrapped in saline (0.9% NaCl) soaked gauze and stored at −20° C. Prior to testing, all femora were removed from the freezer and allowed to thaw to room temperature for three to four hours. The proximal and distal ends of the fractured and contralateral femora were embedded in Wood's metal. Torsional testing was conducted using a servohydraulics machine (MTS Systems Corp., Eden Prairie, Minn.) with a 20 Nm reaction torque cell (Interface, Scottsdale, Ariz.) and tested to failure at a rate of 2.0 deg/sec.
(§3) The peak torque (T), torsional rigidity (TR), […] (G) and the maximum shear stress ( ) were determined through standard equations modeling each femur as a hollow ellipse. In order to compare the biomechanical parameters between different groups, the data was normalized by dividing each fractured femur value by its corresponding intact, contralateral femur value.

fractured femora [2] = experiment: Qualitative histology of early fracture callus at day 4; type: in vivo, BB Wistar rats
Excerpt: as §1
The fractured femora were resected at day 4, decalcified, embedded and sectioned using standard histological techniques. To identify cartilage formation, sections were stained with Accustain™ Trichrome Staining kit (Masson, Sigma Diagnostics, St. Louis, Mo.) for histologic observation. The staining procedure consisted of fixing the sections in Accustain™ Bouins solution (Sigma Diagnostics, St. Louis, Mo.) overnight. […]

fractured femora [3] = experiment: Mechanical (torsional) testing of fractured femora, Sprague-Dawley rats; type: in vivo; settings: 4 weeks
Excerpt: as §1, §2, §3

[4] = fractured femora, versus untreated, FIG. 4
[5] = normalized to intact contralateral femora
[6] = fractured femora, versus untreated, FIG. 3

Substance: ultralente insulin
- maximum shear stress (fractured femora [1]; [4]): significantly increased
- sheer modulus (fractured femora [1]; [4]): trending towards significance
- torque to failure (fractured femora [1]; [4]): significantly increased
- torsional rigidity (fractured femora [1]; [4]): trending towards significance
- mechanical properties of the fractured femora (fractured femora [1]; versus untreated group, FIG. 4): improved
- percent sheer modulus (fractured femora [1]; [5]): trending towards significance
- percent torsional rigidity (fractured femora [1]; [5]): trending towards significance
- osteoid matrix in callus (fractured femora [2]; not present in untreated group): present
- chondrocytes in fracture callus (histology) (fractured femora [2]; untreated group showed only proliferating chondrocytes, FIG. 2): presence of proliferating and hypertrophic chondrocytes
- maximum shear stress (fractured femora [3]; [6]): significantly increased
- sheer modulus (fractured femora [3]; [6]): significantly increased
- torque to failure (fractured femora [3]; [6]): significantly increased
- torsional rigidity (fractured femora [3]; [6]): significantly increased
- mechanical properties of the fractured femora (fractured femora [3]; versus untreated group, FIG. 3): improved
- percent maximum shear stress (fractured femora [3]; [5]): trending towards significance
- percent sheer modulus (fractured femora [3]; [5]): significantly increased
- percent torque to failure (fractured femora [3]; [5]): trending towards significance
- percent torsional rigidity (fractured femora [3]; [5]): significantly increased
